Data taken from patent US20100068150A1, “Selective Caspase Inhibitors” (The Board of Trustees of the Leland Stanford Junior …, priority 2006, published 2010).

Assays:
[1] = molecular target: T1, mature p20 forms of caspase-7 (Homo sapiens, UniProt P55210); experiment: Inhibitor specificity in hypotonic 293 extracts, mature p20 caspase-7; type: biochemical; details: inhibitor 20 μM for 5 min, then KMB01 30 min
T1 construct: p20 is mature large subunit of caspase-7 with N-terminal peptide removed; processing of the zymogen to the large and small subunits by activity of the initiator caspases; endogenous in cells
T1 sequence (P55210 24-198 limits assumed): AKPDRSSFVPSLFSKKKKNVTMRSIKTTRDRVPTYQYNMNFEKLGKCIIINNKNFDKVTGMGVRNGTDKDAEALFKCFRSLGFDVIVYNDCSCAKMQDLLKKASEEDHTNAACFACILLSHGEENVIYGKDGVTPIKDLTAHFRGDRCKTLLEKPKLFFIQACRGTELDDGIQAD
T1 sequence (P55210 207-303 limits assumed): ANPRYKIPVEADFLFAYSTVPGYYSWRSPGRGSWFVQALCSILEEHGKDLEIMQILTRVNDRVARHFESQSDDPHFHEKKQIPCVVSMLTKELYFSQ
From the text: FIGS. 6 A-E illustrate that full-length active caspase-7 has unique inhibitor specificity and is processed to mature forms by downstream executioner caspases. (A) The caspase-3 specific inhibitor causes accumulation of a catalytically active full-length form of caspase-7. Cytosolic extracts from 293 cells were activated with cytochrome c/dATP for the indicated times followed by labeling with KMB01 (left panel) and western blotting with a caspase-7 specific antibody (right panel) as in FIG. 5A. […] (B) The exact same experiment as (A) except extracts from MCF-7 cells were used in place of 293 extracts. (**) indicates forms of caspase-7 that are likely a result of the alternative transcription start site at methionine-45 (C) Quantification of the relative activity of FL-C7 in uninhibited 293 extracts (from FIG. 5A), AB06 treated 293 extracts (from (A)) and uninhibited MCF-7 extracts (from (B)) (D) Inhibitor specificity of full-length and processed forms of caspase-7. Extracts (293) were activated for 5 min with cytochrome c/dATP and then incubated with NP-capped AOMK inhibitors containing the indicated primary amino acid sequences for 5 minutes before KMB01 was added and allowed to label residual caspase active sites for 30 minutes. Samples were analyzed by SDS-PAGE followed by biotin blotting using strepavidin-HRP (left panel) or western blotting for caspase-7 (right panel). Identities of labeled caspases are indicated. (E) Specificity of AB06 after prolonged incubation times. Extracts were treated with AB06 at the indicated concentrations simultaneously with cytochrome c/dATP. At the indicated times after activation, samples were labeled with KMB01 (10 μM) for 30 minutes. Labeled caspases were resolved by SDS-PAGE analysis followed by biotin blotting using strepavidin-HRP.
An additional surprising finding from the inhibitor studies was the overall lack of inhibition of the FL-C7 species by AB06 relative to mature p20 forms of caspase-7. This was surprising since the sequence of AB06 (NP-D3VD-AOMK) differs from the KMB01 probe sequence (Bio-EVD-AOMK) only at the P3 residue. […] We therefore wanted to use inhibitors to compare the ability of different P3 elements to bind to full-length and p20 mature forms of caspase-7. […] Samples were analyzed for active site labeling and protein levels of both full-length and p20 forms of caspase-7 were monitored by western blot (FIG. 6D).
Hypotonic 293 extracts (73 μg of total protein) were activated at 37° C. for 5 minutes as described above. […] Samples (13.5 μg total protein) were analyzed by SDS-PAGE and biotin blotting as described above

[2] = molecular target: T2, Caspase-9 (Homo sapiens, UniProt P55211); experiment: Kinetic compound screening, progress curve method, caspase-9; type: biochemical; details: NI = no inhibition at concentrations tested; for Ki(app) Caspase-9: Table III, Ki(app) = Kass or Kobs/I, 50 nM active caspase-9; for Caspase-9 Ki (app): Table IV
T2 sequence (P55211 1-416): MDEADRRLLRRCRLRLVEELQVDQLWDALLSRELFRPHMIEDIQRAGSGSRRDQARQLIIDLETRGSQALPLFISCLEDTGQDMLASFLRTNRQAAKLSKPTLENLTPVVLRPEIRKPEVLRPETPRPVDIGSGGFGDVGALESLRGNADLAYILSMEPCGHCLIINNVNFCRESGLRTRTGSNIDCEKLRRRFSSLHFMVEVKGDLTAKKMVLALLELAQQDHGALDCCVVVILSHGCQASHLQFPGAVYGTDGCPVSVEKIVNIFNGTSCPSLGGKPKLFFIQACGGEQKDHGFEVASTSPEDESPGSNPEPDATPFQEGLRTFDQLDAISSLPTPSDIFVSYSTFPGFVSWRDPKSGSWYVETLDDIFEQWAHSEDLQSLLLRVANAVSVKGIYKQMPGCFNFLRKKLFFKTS
In short: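 Progress-curve method under pseudo-first-order kinetics, giving Ki(app) (kobs/I, M^−1s^−1), in caspase reaction buffer. Active enzyme at 5 nM (caspase-3, -7), 10 nM (caspase-8) or 50 nM (caspase-9), preactivated at 37 °C for 5, 10 or 40 min respectively. Some caspase-9 compounds also run with 1 M sodium citrate replacing sucrose.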

With Cc1cccc(C)c1C(=O)OCC(=O)[C@H](CC(=O)O)NC(=O)[C@@H](NC(=O)[C@H](Cc1ccncc1)NC(=O)[C@H](CC(=O)O)NC(=O)Cc1ccc(O)c([N+](=O)[O-])c1)C(C)C [AB06, Np-D-3-V-D-DMBA] the “block of KMB01 labeling of mature p20 caspase-7” value [1] was “efficiently blocked labeling”.
Cc1cccc(C)c1C(=O)OCC(=O)[C@H](CC(=O)O)NC(=O)[C@@H](NC(=O)[C@H](CCC(=O)O)NC(=O)[C@H](CC(=O)O)NC(=O)Cc1ccc(O)c([N+](=O)[O-])c1)C(C)C [AB09, Np-D-E- V-D-DMBA] was tested, and the “Ki(app) Caspase-9” value [2] was <5,000 M^−1s^−1, the “Caspase-9 Ki (app)” value [2] was <5,000 M-1s-1 and the “block of KMB01 labeling of mature p20 caspase-7” value [1] was “efficiently blocked labeling”.
In the case of “Bio-EVD-AOMK [KMB01, reference compound]”, the “Ki(app) Caspase-9” value [2] was 175,210 M^−1s^−1 and the “Caspase-9 Ki (app)” value [2] was 210 M⁻¹ s⁻¹.
